According to PubChem BioAssay AID1963431 (Molecular Pharmacology Branch, DTP, NCI, 2024):

Test system: Rh18 complex spheroid viability, percent test/control
Experiment: Anticancer human tumor Rh18 cell line growth inhibition [Asc];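 further: spheroids exposed to compound for 7 days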;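 on viability, T/C: 100% = DMSO vehicle control wells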
Conditions: for IC50: curve of first compound; for viability, T/C: stronger effect = lower value
Protocol: Multicellular complex tumor spheroid response to apoptosis pathway targeting inhibitors Alrizomadlin, Pelcitoclax, and Dasminapant in combination with a variety of drugs and investigational agents in selected tumor cell lines
The MDM2 inhibitor alrizomadlin, the Bcl-2/Bcl-xL inhibitor pelcitoclax, and the IAPs inhibitor dasminapant were evaluated both individually and in combination with standard of care and investigational anticancer small molecules within a complex spheroid model of solid tumors. . Complex spheroids include a stromal component modeled by human endothelial cells (HUVEC) and fibroblasts modeled by human mesenchymal stem cells (MSCs). The concentration ranges selected for each drug and investigational agent were based upon clinically achievable concentrations if the clinical Cmax of the agent was known.
Compounds. The drugs and investigational agents: alrizomadlin (APG-115; NSC831270), pelcitoclax (APG-1252; NSC835773), dasminapant (APG-1387;NSC834197), TAK-243 (NSC785004), copanlisib (NSC809693), olaparib (NSC753686), talazoparib (NSC767125), cobimetinib (NSC 768068), eltanexor (KPT-8602, NSC 794443), abemaciclib (NSC 768073), sotorasib (NSC818433), adagrasib (NSC 831453), MRTX-1133 (NSC 836407), Iadademestat (ORY1001, NSC 806812), and RMC-4630 (NSC839698), were obtained from the NCI Developmental Therapeutics Program Chemical Repository. The FDA-approved anticancer drug set is available from the Developmental Therapeutics Program at https://dtp.cancer.gov/organization/dscb/obtaining/available plates.htm. […] The stock solutions were prepared in dimethyl sulfoxide (DMSO, Sigma-Aldrich, St. Louis, MO, cat. D2650) at 800-fold the tested concentration and stored at -70 degrees C prior to their use. All drugs and investigational agents were tested over a range starting from a high concentration at or near the clinical Cmax and decreasing in half-log increments. If the clinical Cmax for an agent had not been determined, the highest concentration tested was 10 microM.
The patient-derived cancer (PDC) cell lines include five colon adenocarcinomas: 186277-243-T-J2-PDC, 616215-338-R-J1-PDC, 439559-082-T-J2-PDC, 463943-066-T-J2-PDC, and 519858-162-T-J1-PDC; three pancreatic carcinomas: 323965-272-R-J2-PDC, 521955-158-R6-J3-PDC, and 521955-158-R2-J5-PDC; two uterine sarcomas: 327498-152-R-J2-PDC and 993429-296-R-J1-PDC; two rhabdomyosarcomas: 755483-174-R-J1-PDC and 772245-204-R-J1-PDC; two soft tissue sarcomas: 126254-015-R-J1-PDC and 494315-158-R-J1-PDC; two malignant fibrous histiocytomas: 317291-083-R-J1-PDC and 596521-263-R-J1-PDC; two breast carcinomas: 171881-019-R-J1-PDC and 885512-296-R-J2-PDC; and one ovarian carcinoma: 6556581-035-R-J-PDC were obtained from the NCI PDMR, (https://pdmr.cancer.gov). The established cell lines HSSY-2 synovial sarcoma (RRID:CVCL 8719), SYO-1 synovial sarcoma (RRID:CVCL_7146), MPNST malignant peripheral neural sheath tumor were obtained from the Sloan Kettering Institute. The following established cell lines were purchased from the American Type Culture Collection (ATCC, Manassas, VA), Sor the received from the NCI repository:, PANC-1 pancreatic carcinoma (CRL-1469, RRID:CVCL_0480), OVCAR-5 ovarian carcinoma (RRID:CVCL_1628), OVCAR-8 ovarian carcinoma (RRID:CVCL_1629), , MCF-7 breast carcinoma (CRL-12584, RRID:CVCL_0031), MDA-MB-231 breast carcinoma (CRL-12532, RRID:CVCL_0062), NCI-H1876 small cell lung carcinoma (CRL-5902, RRID:CVCL_1503), NCI-H510A small cell lung carcinoma (HTB-184, RRID:CVCL_1565), NCI-H1417 (CRL-5869, RRID:CVCL_1469), and NCI-H196 small cell lung carcinoma (CRL-5823, RRID:CVCL_1509). Dr. Peter Houghton (Greehey Children's Cancer Research Institute, University of Texas Health Science Center, San Antonio, TX) provided Rh-18 rhabdomyosarcoma (RRID:CVCL_1659). Pooled donor human umbilical vein endothelial cells (HUVEC, Lonza, cat. CC-2519) and human mesenchymal stem cells (hMSC, Lonza, cat. PT-2501) were purchased from Lonza (Walkersville, MD).
Cell Culture. […]

[1] = second compound 0.03 µM, first compound 0.00316 µM
[2] = second compound 0.03 µM, first compound 0.01 µM
[3] = second compound 0.03 µM, first compound 0.0316 µM
[4] = second compound 0.03 µM, first compound 0.1 µM
[5] = second compound 0.0949 µM, first compound 0.00316 µM
[6] = second compound 0.0949 µM, first compound 0.01 µM
[7] = second compound 0.0949 µM, first compound 0.0316 µM
[8] = second compound 0.0949 µM, first compound 0.1 µM
[9] = second compound 0.3 µM, first compound 0.00316 µM
[10] = second compound 0.3 µM, first compound 0.01 µM
[11] = second compound 0.3 µM, first compound 0.0316 µM
[12] = second compound 0.3 µM, first compound 0.1 µM
[13] = second compound 0.949 µM, first compound 0.00316 µM
[14] = second compound 0.949 µM, first compound 0.01 µM
[15] = second compound 0.949 µM, first compound 0.0316 µM
[16] = second compound 0.949 µM, first compound 0.1 µM
[17] = second compound 3 µM, first compound 0.00316 µM
[18] = second compound 3 µM, first compound 0.01 µM
[19] = second compound 3 µM, first compound 0.0316 µM
[20] = second compound 3 µM, first compound 0.1 µM

CCN1CCN(Cc2ccc(Nc3ncc(F)c(-c4cc(F)c5nc(C)n(C(C)C)c5c4)n3)nc2)CC1 + CCN1C(C(=O)NC23CCC(C(=O)O)(CC2)CC3)C(c2cccc(Cl)c2F)C2(C(=O)Nc3cc(Cl)ccc32)C12CCCCC2
IC50 (second compound 0.03 µM): < 3.16 nM | IC50 (second compound 0.0949 µM): < 3.16 nM | IC50 (second compound 0.3 µM): < 3.16 nM | IC50 (second compound 0.949 µM): < 3.16 nM | IC50 (second compound 3 µM): < 3.16 nM | viability, T/C [1]: 42.9% | viability, T/C [2]: 39.7% | viability, T/C [3]: 41.4% | viability, T/C [4]: 38.6% | viability, T/C (second compound 0.03 µM, first compound 0.316 µM): 46.5% | viability, T/C (second compound 0.03 µM, first compound 1 µM): 56.1% | viability, T/C [5]: 25.2% | viability, T/C [6]: 24.9% | viability, T/C [7]: 26.3% | viability, T/C [8]: 29.5% | viability, T/C (second compound 0.0949 µM, first compound 0.316 µM): 34.6% | viability, T/C (second compound 0.0949 µM, first compound 1 µM): 56.7% | viability, T/C [9]: 11.7% | viability, T/C [10]: 12.9% | viability, T/C [11]: 14% | viability, T/C [12]: 14.4% | viability, T/C (second compound 0.3 µM, first compound 0.316 µM): 14.2% | viability, T/C (second compound 0.3 µM, first compound 1 µM): 19.8% | viability, T/C [13]: 9.3% | viability, T/C [14]: 8.54% | viability, T/C [15]: 10.2% | viability, T/C [16]: 11.4% | viability, T/C (second compound 0.949 µM, first compound 0.316 µM): 10.6% | viability, T/C (second compound 0.949 µM, first compound 1 µM): 14.6% | viability, T/C [17]: 8.98% | viability, T/C [18]: 7.11% | viability, T/C [19]: 8.3% | viability, T/C [20]: 7.8% | viability, T/C (second compound 3 µM, first compound 0.316 µM): 8.59% | viability, T/C (second compound 3 µM, first compound 1 µM): 13.3%

NC(=O)C(=Cn1cnc(-c2cc(C(F)(F)F)cc(C(F)(F)F)c2)n1)c1cncnc1 + CCN1C(C(=O)NC23CCC(C(=O)O)(CC2)CC3)C(c2cccc(Cl)c2F)C2(C(=O)Nc3cc(Cl)ccc32)C12CCCCC2
IC50 (second compound 0.03 µM): < 0.949 nM | IC50 (second compound 0.0949 µM): < 0.949 nM | IC50 (second compound 0.3 µM): < 0.949 nM | IC50 (second compound 0.949 µM): < 0.949 nM | IC50 (second compound 3 µM): < 0.949 nM | viability, T/C (second compound 0.03 µM, first compound 0.000949 µM): 39.2% | viability, T/C (second compound 0.03 µM, first compound 0.003 µM): 32% | viability, T/C (second compound 0.03 µM, first compound 0.00949 µM): 37.7% | viability, T/C (second compound 0.03 µM, first compound 0.03 µM): 32% | viability, T/C (second compound 0.03 µM, first compound 0.0949 µM): 26.6% | viability, T/C (second compound 0.03 µM, first compound 0.3 µM): 22.1% | viability, T/C (second compound 0.0949 µM, first compound 0.000949 µM): 19.4% | viability, T/C (second compound 0.0949 µM, first compound 0.003 µM): 18.7% | viability, T/C (second compound 0.0949 µM, first compound 0.00949 µM): 16.7% | viability, T/C (second compound 0.0949 µM, first compound 0.03 µM): 12.7% | viability, T/C (second compound 0.0949 µM, first compound 0.0949 µM): 9.47% | viability, T/C (second compound 0.0949 µM, first compound 0.3 µM): 4.98% | viability, T/C (second compound 0.3 µM, first compound 0.000949 µM): 9.47% | viability, T/C (second compound 0.3 µM, first compound 0.003 µM): 9.88% | viability, T/C (second compound 0.3 µM, first compound 0.00949 µM): 9.7% | viability, T/C (second compound 0.3 µM, first compound 0.03 µM): 6.03% | viability, T/C (second compound 0.3 µM, first compound 0.0949 µM): 5% | viability, T/C (second compound 0.3 µM, first compound 0.3 µM): 1.69% | viability, T/C (second compound 0.949 µM, first compound 0.000949 µM): 7.7% | viability, T/C (second compound 0.949 µM, first compound 0.003 µM): 9.36% | viability, T/C (second compound 0.949 µM, first compound 0.00949 µM): 6.31% | viability, T/C (second compound 0.949 µM, first compound 0.03 µM): 4.21% | viability, T/C (second compound 0.949 µM, first compound 0.0949 µM): 3.62% | viability, T/C (second compound 0.949 µM, first compound 0.3 µM): 1.42% | viability, T/C (second compound 3 µM, first compound 0.000949 µM): 6.6% | viability, T/C (second compound 3 µM, first compound 0.003 µM): 6.14% | viability, T/C (second compound 3 µM, first compound 0.00949 µM): 5.36% | viability, T/C (second compound 3 µM, first compound 0.03 µM): 4.12% | viability, T/C (second compound 3 µM, first compound 0.0949 µM): 2.88% | viability, T/C (second compound 3 µM, first compound 0.3 µM): 1.03%

NC1CCC(NC2CC2c2ccccc2)CC1 (stereo not given) + CCN1C(C(=O)NC23CCC(C(=O)O)(CC2)CC3)C(c2cccc(Cl)c2F)C2(C(=O)Nc3cc(Cl)ccc32)C12CCCCC2
IC50 (second compound 0.03 µM): < 0.316 nM | IC50 (second compound 0.0949 µM): < 0.316 nM | IC50 (second compound 0.3 µM): < 0.316 nM | IC50 (second compound 0.949 µM): < 0.316 nM | IC50 (second compound 3 µM): < 0.316 nM | viability, T/C (second compound 0.03 µM, first compound 0.000316 µM): 31.7% | viability, T/C (second compound 0.03 µM, first compound 0.001 µM): 31.3% | viability, T/C [1]: 30.4% | viability, T/C [2]: 29.5% | viability, T/C [3]: 33.9% | viability, T/C [4]: 34.5% | viability, T/C (second compound 0.0949 µM, first compound 0.000316 µM): 19.3% | viability, T/C (second compound 0.0949 µM, first compound 0.001 µM): 23.4% | viability, T/C [5]: 18.8% | viability, T/C [6]: 19% | viability, T/C [7]: 19.6% | viability, T/C [8]: 20.9% | viability, T/C (second compound 0.3 µM, first compound 0.000316 µM): 11.1% | viability, T/C (second compound 0.3 µM, first compound 0.001 µM): 13.3% | viability, T/C [9]: 13% | viability, T/C [10]: 13.3% | viability, T/C [11]: 12.9% | viability, T/C [12]: 14.4% | viability, T/C (second compound 0.949 µM, first compound 0.000316 µM): 11.6% | viability, T/C (second compound 0.949 µM, first compound 0.001 µM): 10.8% | viability, T/C [13]: 9.55% | viability, T/C [14]: 8.96% | viability, T/C [15]: 10.3% | viability, T/C [16]: 11.3% | viability, T/C (second compound 3 µM, first compound 0.000316 µM): 11% | viability, T/C (second compound 3 µM, first compound 0.001 µM): 10.2% | viability, T/C [17]: 11.8% | viability, T/C [18]: 10.1% | viability, T/C [19]: 8.61% | viability, T/C [20]: 9.99%
